Source: EPA's ToxRefDB 2

Assays:
[1] = system: mouse; settings: Carcinogenicity, b6c3f1, Oral, Gavage/Intubation, dose end: 2 year, group: systemic
[2] = system: mouse; settings: Multigenerational reproductive toxicity study, cd1, Oral, Gavage/Intubation, dose end: 1 generation
[3] = system: mouse; settings: Other (NonGuideline or Guideline Not Listed), cd1, Oral, Gavage/Intubation, dose end: 2 year, group: cannot be grouped
[4] = system: mouse; settings: Multigenerational reproductive toxicity study, cd1, Oral, Gavage/Intubation, dose end: 2 generation
[5] = system: mouse; settings: Prenatal developmental toxicity study, swiss albino, Oral, Gavage/Intubation, dose end: 15 GD
[6] = system: mouse; settings: Subchronic oral toxicity in rodents, b6c3f1, Gavage/Intubation, dose end: 94 day, group: systemic, systemic / hematology / erythrocyte (rbc) count differential / erythrocyte (rbc) + systemic / hematology / hematocrit (hct) / hematocrit (…
[7] = system: mouse; settings: Prenatal developmental toxicity study, cd1, Oral, Gavage/Intubation, dose end: 16 GD, group: developmental
[8] = system: mouse; settings: Subchronic oral toxicity in rodents, b6c3f1, Gavage/Intubation, dose end: 14 week, group: systemic
[9] = system: rat; settings: Subchronic dermal toxicity, sprague dawley, Topical, dose end: 91 day, group: systemic
[10] = system: rat; settings: Prenatal developmental toxicity study, sprague dawley, Oral, Gavage/Intubation, dose end: 15 GD
[11] = system: rat; settings: Sub-acute dermal toxicity, sprague dawley, Topical, dose end: 21 day, group: systemic
[12] = system: rat; settings: Prenatal developmental toxicity study, sprague dawley, Oral, Gavage/Intubation, dose end: 15 GD; remark: listed apart in the source
[13] = system: rabbit; settings: Prenatal developmental toxicity study, new zealand white, Oral, Gavage/Intubation, dose end: 18 GD
[14] = system: rabbit; settings: Prenatal developmental toxicity study, new zealand white, Oral, Gavage/Intubation, dose end: 18 GD; remark: listed apart in the source
[15] = systemic / hematology / erythrocyte (rbc) count differential / erythrocyte (rbc) + systemic / hematology / mean corpuscular (cell) volume (…
[16] = group: parental, systemic / hematology / leukocyte (wbc) count differential / leukocyte (wbc) + systemic / hematology / mean corpuscular (cell) volume (mcv…
[17] = group: parental, systemic / hematology / mean corpuscular (cell) volume (mcv) / mean corpuscular (cell) volume (mcv) + systemic / hematology / mean …
[18] = group: reproductive, reproductive / reproductive performance / pregnancy / pregnancy + reproductive / reproductive performance / resorptions / resorptions + …
[19] = reproductive / reproductive performance / fertility / fertility + reproductive / offspring survival early / litter size / litter size + …
[20] = group: offspring, systemic / in life observation / body weight / offspring (pup) weight
[21] = group: parental, systemic / in life observation / body weight / body weight + systemic / in life observation / body weight / dam weight + systemic / …
[22] = group: parental, systemic / in life observation / body weight / body weight + systemic / pathology gross / sperm measure / sperm morphology + systemic / …
[23] = group: reproductive, reproductive / offspring survival early / live fetuses / live fetuses
[24] = group: reproductive, reproductive / reproductive performance / reproductive performance other / NOS + reproductive / reproductive performance / gestational …
[25] = group: developmental, systemic / in life observation / body weight / fetal weight
[26] = group: maternal, systemic / in life observation / food consumption / food consumption
[27] = developmental / developmental malformation / bone / supernumerary + systemic / in life observation / body weight / fetal weight
[28] = systemic / in life observation / body weight / fetal weight
[29] = systemic / hematology / erythrocyte (rbc) count differential / erythrocyte (rbc) + systemic / hematology / hematocrit (hct) / hematocrit (…
[30] = systemic / pathology microscopic / skin / acanthosis + systemic / hematology / blood clotting / blood clotting - prothrombin time + systemic…
[31] = group: maternal, systemic / in life observation / body weight / body weight gain
[32] = systemic / in life observation / body weight / body weight gain + systemic / in life observation / clinical signs / desquamation + systemic…
[33] = systemic / pathology gross / skin / scabbing
[34] = group: maternal, systemic / in life observation / body weight / body weight + systemic / in life observation / body weight / body weight gain + systemic / in…
[35] = group: maternal, reproductive / reproductive performance / resorptions / resorptions
[36] = group: developmental, developmental / developmental malformation / bone / misaligned + systemic / in life observation / body weight / fetal weight + developmental…
[37] = group: maternal, reproductive / reproductive performance / aborted / aborted + reproductive / reproductive performance / postimplantation loss / …

## Cc1cn([C@H]2C[C@H](N=[N+]=[N-])[C@@H](CO)O2)c(=O)[nH]c1=O [3'-Azido-3'-deoxythymidine]
[1]; [15]
  LEL: 30 mg/kg/day
  NEL: < 30 mg/kg/day
[1]; systemic / pathology microscopic / vagina / hyperplasia
  LOAEL: 120 mg/kg/day
[1]; systemic / pathology microscopic / vagina / hyperplasia + systemic / pathology microscopic / liver / adenoma/carcinoma combined + systemic…
  NOAEL: 60 mg/kg/day
[2]; [16]
  LOAEL: > 400 mg/kg/day
  NOAEL: ≥ 400 mg/kg/day
[2]; [17]
  LEL: 100 mg/kg/day
  NEL: < 100 mg/kg/day
[2]; group: reproductive, reproductive / reproductive performance / pregnancy / pregnancy
  LEL: 200 mg/kg/day
[2]; group: reproductive, reproductive / reproductive performance / pregnancy / pregnancy + reproductive / reproductive performance / resorptions / resorptions
  NEL: 100 mg/kg/day
[2]; [18]
  LOAEL: > 400 mg/kg/day
  NOAEL: ≥ 400 mg/kg/day
[3]; reproductive / reproductive performance / fertility / fertility
  NEL: 100 mg/kg/day
[3]; [19]
  LEL: 200 mg/kg/day
  LOAEL: > 300 mg/kg/day
  NOAEL: ≥ 300 mg/kg/day
[4]; [20]
  LEL: 200 mg/kg/day
  LOAEL: > 200 mg/kg/day
  NEL: 100 mg/kg/day
  NOAEL: ≥ 200 mg/kg/day
[4]; [21]
  LOAEL: > 200 mg/kg/day
  NOAEL: ≥ 200 mg/kg/day
[4]; [22]
  LEL: 50 mg/kg/day
  NEL: < 50 mg/kg/day
[4]; [23]
  LEL: 50 mg/kg/day
  NEL: < 50 mg/kg/day
[4]; [24]
  LOAEL: > 200 mg/kg/day
  NOAEL: ≥ 200 mg/kg/day
[5]; [25]
  LEL: 100 mg/kg/day
  LOAEL: > 400 mg/kg/day
  NEL: < 100 mg/kg/day
  NOAEL: ≥ 400 mg/kg/day
[5]; [26]
  LEL: 400 mg/kg/day
  LOAEL: > 400 mg/kg/day
  NEL: 200 mg/kg/day
  NOAEL: ≥ 400 mg/kg/day
[6]
  LEL: 100 mg/kg/day
  LOAEL: > 400 mg/kg/day
  NEL: < 100 mg/kg/day
  NOAEL: ≥ 400 mg/kg/day
[7]; [27]
  LOAEL: > 400 mg/kg/day
  NOAEL: ≥ 400 mg/kg/day
[7]; [28]
  LEL: 100 mg/kg/day
  NEL: < 100 mg/kg/day
[8]; [29]
  LEL: 50 mg/kg/day
  NEL: < 50 mg/kg/day
[8]; systemic / in life observation / body weight / body weight gain + systemic / pathology microscopic / bone marrow / atrophy
  LOAEL: 800 mg/kg/day
[8]; systemic / in life observation / body weight / body weight gain + systemic / pathology microscopic / bone marrow / atrophy + systemic / …
  NOAEL: 200 mg/kg/day

## CN(C)C(=S)[S-].[K+] [Potassium dimethyldithiocarbamate]
[9]; systemic / pathology gross / skin / scabbing + systemic / pathology microscopic / skin / acanthosis
  LOAEL: 350 mg/kg/day
[9]; systemic / pathology gross / skin / scabbing + systemic / pathology microscopic / skin / acanthosis + systemic / hematology / blood clotting…
  NOAEL: 75 mg/kg/day
[9]; [30]
  LEL: 75 mg/kg/day
  NEL: < 75 mg/kg/day
[10]; [25]
  LEL: 600 mg/kg/day
  LOAEL: 600 mg/kg/day
  NEL: 400 mg/kg/day
  NOAEL: 400 mg/kg/day
[10]; [31]
  LEL: 100 mg/kg/day
  NEL: < 100 mg/kg/day
[10]; group: maternal, systemic / in life observation / body weight / body weight gain + systemic / in life observation / clinical signs / salivation
  LOAEL: 400 mg/kg/day
[10]; group: maternal, systemic / in life observation / body weight / body weight gain + systemic / in life observation / clinical signs / salivation + …
  NOAEL: 200 mg/kg/day
[11]; [32]
  LOAEL: 750 mg/kg/day
  NOAEL: 500 mg/kg/day
[11]; [33]
  LEL: 100 mg/kg/day
  NEL: < 100 mg/kg/day
[12]; [25]
  LEL: 400 mg/kg/day
  LOAEL: > 400 mg/kg/day
  NEL: 150 mg/kg/day
  NOAEL: ≥ 400 mg/kg/day
[12]; [34]
  LEL: 150 mg/kg/day
  LOAEL: 150 mg/kg/day
  NEL: 25 mg/kg/day
  NOAEL: 25 mg/kg/day
[13]; [25]
  LEL: 50 mg/kg/day
  LOAEL: 150 mg/kg/day
  NEL: 25 mg/kg/day
  NOAEL: 50 mg/kg/day
[13]; [35]
  LEL: 25 mg/kg/day
  NEL: < 25 mg/kg/day
[13]; group: maternal, reproductive / reproductive performance / resorptions / resorptions + systemic / in life observation / body weight / body weight gain + …
  NOAEL: 50 mg/kg/day
[13]; [31]
  LOAEL: 150 mg/kg/day
[14]; group: developmental, developmental / developmental malformation / bone / misaligned + systemic / in life observation / body weight / fetal weight
  LOAEL: 38 mg/kg/day
[14]; [36]
  LEL: 38 mg/kg/day
  NEL: 12.8 mg/kg/day
  NOAEL: 12.8 mg/kg/day
[14]; [37]
  LEL: 38 mg/kg/day
  LOAEL: 38 mg/kg/day
  NEL: 12.8 mg/kg/day
  NOAEL: 12.8 mg/kg/day
